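Following 48 hours of exposure in 96-well plates, responses at five concentrations were used to interpolate endpoints linearly. GI50 marks 50% less growth. TGI denotes the concentration required for complete inhibition of growth.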
Columns and labels:
Test in all cases: NCI-60 cell line screen, 48 h
786-0 renal = system: 786-0 renal
A498 renal = system: A498 renal
A549 NSCLC = system: A549 NSCLC
ACHN renal = system: ACHN renal
BT-549 breast = system: BT-549 breast
CAKI-1 renal = system: CAKI-1 renal
CCRF-CEM leukemia = system: CCRF-CEM leukemia
COLO 205 colon = system: COLO 205 colon
DU-145 prostate = system: DU-145 prostate
EKVX NSCLC = system: EKVX NSCLC
HCC-2998 colon = system: HCC-2998 colon
HCT-116 colon = system: HCT-116 colon
HCT-15 colon = system: HCT-15 colon
HL-60(TB) leukemia = system: HL-60(TB) leukemia
HOP-62 NSCLC = system: HOP-62 NSCLC
HOP-92 NSCLC = system: HOP-92 NSCLC
HS 578T breast = system: HS 578T breast
HT29 colon = system: HT29 colon
IGROV1 ovarian = system: IGROV1 ovarian
K-562 leukemia = system: K-562 leukemia
KM12 colon = system: KM12 colon
LOX IMVI melanoma = system: LOX IMVI melanoma
M14 melanoma = system: M14 melanoma
MCF7 breast = system: MCF7 breast
MDA-MB-231 breast = system: MDA-MB-231 breast
MDA-MB-435 = system: MDA-MB-435
MOLT-4 leukemia = system: MOLT-4 leukemia
NCI-H226 lung = system: NCI-H226 lung
NCI-H23 lung = system: NCI-H23 lung
NCI-H460 lung = system: NCI-H460 lung
NCI-H522 lung = system: NCI-H522 lung
NCI/ADR-RES ovarian = system: NCI/ADR-RES ovarian
OVCAR-3 ovarian = system: OVCAR-3 ovarian
OVCAR-5 ovarian = system: OVCAR-5 ovarian
OVCAR-8 ovarian = system: OVCAR-8 ovarian
PC-3 prostate = system: PC-3 prostate
RPMI-8226 leukemia = system: RPMI-8226 leukemia
RXF 393 renal = system: RXF 393 renal
SF-268 CNS = system: SF-268 CNS
SF-295 CNS = system: SF-295 CNS
SF-539 CNS = system: SF-539 CNS
SK-MEL-2 melanoma = system: SK-MEL-2 melanoma
SK-MEL-28 melanoma = system: SK-MEL-28 melanoma
SK-MEL-5 melanoma = system: SK-MEL-5 melanoma
SN12C renal = system: SN12C renal
SNB-19 CNS = system: SNB-19 CNS
SR leukemia = system: SR leukemia
SW-620 colon = system: SW-620 colon
T-47D breast = system: T-47D breast
TK-10 renal = system: TK-10 renal
U251 CNS = system: U251 CNS
UACC-257 melanoma = system: UACC-257 melanoma
UACC-62 melanoma = system: UACC-62 melanoma
UO-31 renal = system: UO-31 renal

Cc1sc(NC2=NC(=O)/C(=C\c3ccccc3)S2)nc1-c1nc(NC2=NC(=O)/C(=C\c3ccccc3)S2)sc1C
GI50 (786-0 renal): 11.4 µM | TGI (786-0 renal): 33.4 µM | GI50 (A498 renal): 12.1 µM | TGI (A498 renal): 30.7 µM | GI50 (A549 NSCLC): 15.5 µM | TGI (A549 NSCLC): > 39.6 µM | GI50 (ACHN renal): 12.4 µM | TGI (ACHN renal): > 32.6 µM | GI50 (BT-549 breast): 18.4 µM | TGI (BT-549 breast): > 50 µM | GI50 (CAKI-1 renal): 12.1 µM | TGI (CAKI-1 renal): 33.2 µM | GI50 (CCRF-CEM leukemia): 9.41 µM | TGI (CCRF-CEM leukemia): 35.6 µM | GI50 (COLO 205 colon): 26.4 µM | TGI (COLO 205 colon): > 50 µM | GI50 (DU-145 prostate): 0.382 µM | TGI (DU-145 prostate): > 20.6 µM | GI50 (EKVX NSCLC): 0.0627 µM | TGI (EKVX NSCLC): 1.94 µM | GI50 (HCC-2998 colon): 14.2 µM | TGI (HCC-2998 colon): 39.9 µM | GI50 (HCT-116 colon): 9.31 µM | TGI (HCT-116 colon): 24.6 µM | GI50 (HCT-15 colon): 13 µM | TGI (HCT-15 colon): > 39.6 µM | GI50 (HL-60(TB) leukemia): 18 µM | TGI (HL-60(TB) leukemia): > 50 µM | GI50 (HOP-62 NSCLC): 8.71 µM | TGI (HOP-62 NSCLC): 22.9 µM | GI50 (HOP-92 NSCLC): 12 µM | TGI (HOP-92 NSCLC): > 36.1 µM | GI50 (HS 578T breast): 3.13 µM | TGI (HS 578T breast): > 50 µM | GI50 (HT29 colon): 23.3 µM | TGI (HT29 colon): > 50 µM | GI50 (IGROV1 ovarian): 23 µM | TGI (IGROV1 ovarian): > 50 µM | GI50 (K-562 leukemia): 13.2 µM | TGI (K-562 leukemia): > 35 µM | GI50 (KM12 colon): 11.1 µM | TGI (KM12 colon): > 37.9 µM | GI50 (LOX IMVI melanoma): 11.2 µM | TGI (LOX IMVI melanoma): 35.3 µM | GI50 (M14 melanoma): 9.51 µM | TGI (M14 melanoma): 23.6 µM | GI50 (MCF7 breast): 16.2 µM | TGI (MCF7 breast): > 50 µM | GI50 (MDA-MB-231 breast): 10.2 µM | TGI (MDA-MB-231 breast): 27 µM | GI50 (MDA-MB-435): 16.3 µM | TGI (MDA-MB-435): > 50 µM | GI50 (MOLT-4 leukemia): 24.2 µM | TGI (MOLT-4 leukemia): > 50 µM | GI50 (NCI-H226 lung): 12.4 µM | TGI (NCI-H226 lung): > 32.8 µM | GI50 (NCI-H23 lung): 15.4 µM | TGI (NCI-H23 lung): > 41.4 µM | GI50 (NCI-H460 lung): 15.5 µM | TGI (NCI-H460 lung): > 50 µM | GI50 (NCI-H522 lung): 22.3 µM | TGI (NCI-H522 lung): > 50 µM | GI50 (NCI/ADR-RES ovarian): 14.4 µM | TGI (NCI/ADR-RES ovarian): 43.8 µM | GI50 (OVCAR-3 ovarian): 9.84 µM | TGI (OVCAR-3 ovarian): 29.1 µM | GI50 (OVCAR-5 ovarian): 26.2 µM | TGI (OVCAR-5 ovarian): > 50 µM | GI50 (OVCAR-8 ovarian): 16.5 µM | TGI (OVCAR-8 ovarian): > 39.6 µM | GI50 (PC-3 prostate): 16.7 µM | TGI (PC-3 prostate): > 50 µM | GI50 (RPMI-8226 leukemia): 8.45 µM | TGI (RPMI-8226 leukemia): 31.6 µM | GI50 (RXF 393 renal): > 24.2 µM | TGI (RXF 393 renal): > 40.2 µM | GI50 (SF-268 CNS): 14.7 µM | TGI (SF-268 CNS): 49.4 µM | GI50 (SF-295 CNS): 13.2 µM | TGI (SF-295 CNS): > 40.7 µM | GI50 (SF-539 CNS): 17.9 µM | TGI (SF-539 CNS): > 34.1 µM | GI50 (SK-MEL-2 melanoma): > 35.1 µM | TGI (SK-MEL-2 melanoma): > 50 µM | GI50 (SK-MEL-28 melanoma): 25.3 µM | TGI (SK-MEL-28 melanoma): > 50 µM | GI50 (SK-MEL-5 melanoma): 13.1 µM | TGI (SK-MEL-5 melanoma): > 34.5 µM | GI50 (SN12C renal): 11.4 µM | TGI (SN12C renal): 29.8 µM | GI50 (SNB-19 CNS): 26 µM | TGI (SNB-19 CNS): > 50 µM | GI50 (SR leukemia): 7.49 µM | TGI (SR leukemia): 21.4 µM | GI50 (SW-620 colon): 16.7 µM | TGI (SW-620 colon): > 50 µM | GI50 (T-47D breast): 28.2 µM | TGI (T-47D breast): > 50 µM | GI50 (TK-10 renal): 7.19 µM | TGI (TK-10 renal): 22.7 µM | GI50 (U251 CNS): 9.27 µM | TGI (U251 CNS): 22.9 µM | GI50 (UACC-257 melanoma): 13.7 µM | TGI (UACC-257 melanoma): > 38.7 µM | GI50 (UACC-62 melanoma): 7.45 µM | TGI (UACC-62 melanoma): 24 µM | GI50 (UO-31 renal): 24.9 µM | TGI (UO-31 renal): > 44.4 µM

From PubChem BioAssay (NCI)
